Results taken from PMC10187093, “Synthesis, in silico modelling, and in vitro biological evaluation of substituted pyrazole derivatives as potential anti-skin cancer, anti-tyrosinase, and antioxidant agents” (Journal of Enzyme Inhibition and Medicinal Chemistry, 2023).
Read-outs that look alike come from different tables or passages of the source.

How the values were obtained:
[1] = DPPH free radical scavenging assay; settings: for Percent Scavenging (DPPH): 1 mM
Method: An initial screen was done of all 25 derivatives at a concentration of 1 mM. […] Methanol was used as the diluent, and 100 µL of DPPH (200 µM; Sigma-Aldrich, St. Louis, MO) was added to each well. […] The scavenging capacity (SC) was calculated as SC% = ((ΔAcontrol – ΔAsample)/ΔAcontrol) × 100%, where ΔAcontrol was the absorbance of the reagent blank, and ΔAsample was the absorbance of the test samples. The control contained all reagents except the compounds, and all tests were performed in triplicate. Quercetin served as a positive control. The DPPH methanolic solution (1 mL) mixed with DMSO (5 µL) served as a negative control.

A375 = test: MTT antiproliferative/cytotoxicity assay, A375; assay type: cell-based, human; settings: melanoma, MTT, 48 h, read-out: IC50 A375
Method: (§1) Human-derived GFP-expressing melanoma A375 and epidermoid carcinoma A431 cell lines were purchased from Angio-Proteomie (Boston, MA). Human melanoma carcinoma SK-MEL-28 and human immortalised keratinocytes (HaCaT) cell lines were acquired from American Type Culture Collection (ATCC; Manassas, VA). Human cutaneous SCC cell line SCC-12[192] was generously provided by Dr. James G. Rheinwald to Dr. Tatiana Efimova. Except SK-MEL-28, which was cultured in an RPMI-1640 medium supplemented with 5% FBS, all other human immortalised cell lines were grown and maintained in DMEM containing varying percentages of FBS; 5% FBS for A431, SCC-12, and HaCaT lines, and 10% FBS for A375. All culture media were routinely supplemented with 1% PEST 100X (100 U/mL penicillin, 100 μg/mL streptomycin), and cells were cultured in incubators maintained at 37 °C under an atmosphere of 95% humidity, 20% O2, and 5% CO2. The growth media of incubated cells were changed every 2–3 days until they attained 70–80% confluence, after which they were sub-cultured for experiments and re-passaging. DMSO was used as the vehicle to prepare a 10 mM stock solution of the test compounds.
(§2) Stock solutions (10 mM) were prepared by dissolving each compound to be screened in DMSO. From these stock solutions, escalating concentrations were prepared using the corresponding cell growth media as a diluent, and the cells (65–75% confluent) were treated with (0–40 µM) or without the drug in sext- to octuplicate and incubated for 48 h. All treatment protocols and controls were prepared as previously described.
(§3) The potency and cytotoxicity of the test compounds against two cutaneous melanoma (A375 and SK-MEL-28) and two non-melanoma (A431 and SCC-12) SC cell lines in addition to a control immortalised normal human epidermal keratinocytes (HaCaT) cell line were assessed by MTT assay as previously described.

SK-MEL-28 = test: MTT antiproliferative/cytotoxicity assay, SK-MEL-28; assay type: cell-based, human; settings: melanoma, MTT, 48 h, read-out: IC50 SKMEL-28
Method: as §1, §2, §3

GFP-A431 = test: MTT antiproliferative/cytotoxicity assay, A431; assay type: cell-based, human; settings: for IC50: read-out: IC50 GFP-A431
Method: (§4) Human-derived GFP-expressing melanoma A375 and epidermoid carcinoma A431 cell lines were purchased from Angio-Proteomie (Boston, MA). Human melanoma carcinoma SK-MEL-28 and human immortalised keratinocytes (HaCaT) cell lines were acquired from American Type Culture Collection (ATCC; Manassas, VA). […] The growth media of incubated cells were changed every 2–3 days until they attained 70–80% confluence, after which they were sub-cultured for experiments and re-passaging. DMSO was used as the vehicle to prepare a 10 mM stock solution of the test compounds.
(§5) Stock solutions (10 mM) were prepared by dissolving each compound to be screened in DMSO.

HaCaT = test: MTT cytotoxicity assay, noncancerous HaCaT keratinocytes; assay type: cell-based, human; settings: control noncancerous keratinocytes, MTT, 48 h, read-out: IC50 HaCaT
Method: as §1, §2, §3

SCC-12 = test: MTT antiproliferative/cytotoxicity assay, SCC-12; assay type: cell-based, human; settings: for IC50: non-melanoma, MTT, 48 h, read-out: IC50 SCC-12
Method: as §4, §5

mushroom tyrosinase = biological target: T1, mushroom tyrosinase (Agaricus bisporus, UniProt C7FF04); test: In vitro mushroom tyrosinase inhibition assay; assay type: biochemical; settings: for inhibition at 500 µM: single-concentration screen, read-out: % Inhibition of tyrosinase; for IC50: > 500 = not biologically relevant, read-out: IC50 Value, mushroom tyrosinase inhibition (Table S1)
T1 construct: purchased Sigma-Aldrich Chemical Company (St. Louis, MO) and MP Biomedicals (Irvine, CA)
Method: The anti-tyrosinase potential of all the synthesised derivatives was determined by an enzymatic tyrosinase inhibition assay based on their ability to inhibit the substrate, L-tyrosine, from binding to the tyrosinase enzyme. […] Test samples were dissolved in DMSO at a concentration of 10 mM and then diluted to different concentrations with phosphate buffer (0.1 M, pH 6.8). Each well contained 40 µL of the sample with 80 µL of phosphate buffer solution (0.1 M, pH 6.8), 40 µL of tyrosinase enzyme (100 units/mL), and 40 µL L-tyrosine (2.5 mM). The mixture was incubated for 30 min at room temperature, and absorbance was measured at 490 nm. Each sample was accompanied by a sample blank containing all components except tyrosinase. […] The percentage of tyrosinase inhibition was calculated as follows: ((ΔAcontrol – ΔAsample)/ΔAcontrol) × 100. IC50 values denoted the sample concentration required to inhibit 50% tyrosinase activity (Table S1).

[2] = read-out: IC50 DPPH radical scavenging
[3] = Homo sapiens, A-431, 48 h, non-melanoma, MTT, 48 h
[4] = N.A. = No Activity, > 1000 = not biologically relevant, read-out: IC50 Value, DPPH antioxidant activity (Table S4)
[5] = IC50 HaCaT divided by IC50 A431
[6] = IC50 HaCaT divided by IC50 SCC-12

T1 sequence (C7FF04 1-392 limits assumed): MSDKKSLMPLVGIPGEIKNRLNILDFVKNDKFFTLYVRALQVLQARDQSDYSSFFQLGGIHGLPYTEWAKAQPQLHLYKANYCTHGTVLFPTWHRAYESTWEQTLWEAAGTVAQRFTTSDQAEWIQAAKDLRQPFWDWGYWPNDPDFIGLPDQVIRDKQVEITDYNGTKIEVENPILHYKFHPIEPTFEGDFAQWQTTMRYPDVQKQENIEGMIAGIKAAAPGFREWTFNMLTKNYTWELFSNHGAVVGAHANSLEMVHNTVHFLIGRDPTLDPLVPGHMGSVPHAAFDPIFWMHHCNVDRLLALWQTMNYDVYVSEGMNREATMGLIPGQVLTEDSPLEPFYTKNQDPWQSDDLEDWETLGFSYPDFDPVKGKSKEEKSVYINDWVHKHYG

Cc1cc(C(C)(C)C)c(O)c(C(C)(C)C)c1 [BHT, butylated hydroxytoluene, reference compound]
IC50 [1, 2]: 285 ± 7 µM

Cc1ccc(-c2cc(C(F)(F)F)nn2-c2ccc(S(N)(=O)=O)cc2)cc1 [Celecoxib, celecoxib, reference compound]
IC50 (A375; Homo sapiens, A-375, 48 h): 27 µM | IC50 (A375): 26.8 ± 2.7 µM | IC50 (SK-MEL-28; Homo sapiens, SK-MEL-28): 11.4 ± 2.4 µM | IC50 (GFP-A431; Homo sapiens, A-431, 48 h): 7.4 µM | IC50 (HaCaT; Homo sapiens, HaCaT): 49.8 ± 8.2 µM

N.N.[Cl][Pt][Cl] [Cisplatin, cisplatin, reference compound]
IC50 (A375): 1.49 ± 0.44 µM | IC50 (SK-MEL-28): 14.2 ± 0.24 µM | IC50 (GFP-A431; non-melanoma, MTT, 48 h): 7.7 ± 0.3 µM | IC50 (SCC-12): 4.4 ± 0.2 µM | IC50 (HaCaT): 3.4 ± 0.4 µM

CCc1c(C)n[nH]c1C [P1, 4-Ethyl-3,5-dimethyl-1H-pyrazole]
inhibition at 500 µM (mushroom tyrosinase): 6.77% | IC50 (mushroom tyrosinase): > 500 µM | IC50 (A375; Homo sapiens, A-375, 48 h): 47.7 ± 4.2 µM | IC50 (SK-MEL-28; Homo sapiens, SK-MEL-28, 48 h): 42.8 ± 0.3 µM | IC50 (GFP-A431; [3]): 41.6 ± 0.8 µM | IC50 (SCC-12; Homo sapiens, SCC12, 48 h): 257 ± 18.4 µM | IC50 (HaCaT; Homo sapiens, HaCaT): 60.5 ± 3.9 µM | Percent Scavenging (DPPH) [1]: 5.85% | IC50 [1, 4]: > 1000 µM

Cc1n[nH]c2c1CCC2 [P2, 3-Methyl-1,4,5,6-tetrahydrocyclopenta[c]pyrazole]
inhibition at 500 µM (mushroom tyrosinase): 20.8% | IC50 (mushroom tyrosinase): > 500 µM | IC50 (A375; Homo sapiens, A-375, 48 h): 54.3 ± 1.6 µM | IC50 (SK-MEL-28; Homo sapiens, SK-MEL-28, 48 h): 42.6 ± 1.5 µM | IC50 (GFP-A431; [3]): 43.9 ± 2.1 µM | IC50 (SCC-12; Homo sapiens, SCC12, 48 h): 246 ± 37.3 µM | IC50 (HaCaT; Homo sapiens, HaCaT): 44.2 ± 1.1 µM | Percent Scavenging (DPPH) [1]: -5.84%

Cc1cc(-c2ccccc2)n[nH]1 [P3, 5-Methyl-3-phenyl-1H-pyrazole]
inhibition at 500 µM (mushroom tyrosinase): 42.6% | IC50 (mushroom tyrosinase): > 500 µM | IC50 (A375; Homo sapiens, A-375, 48 h): 54.8 ± 2.7 µM | IC50 (SK-MEL-28; Homo sapiens, SK-MEL-28, 48 h): 59.1 ± 4.6 µM | selectivity index (SI) A431 (GFP-A431): 27.2 ± 0.9 (1.6) | IC50 (GFP-A431; [3]): 27.2 ± 0.9 µM | selectivity index (SI) SCC-12 (SCC-12): 546.5 ± 20.7 (0.1) | IC50 (SCC-12; Homo sapiens, SCC12, 48 h): 546 ± 20.7 µM | IC50 (HaCaT; Homo sapiens, HaCaT): 42.1 ± 3.4 µM | Percent Scavenging (DPPH) [1]: -0.39%

Cc1[nH]nc(-c2ccccc2)c1Cl [P4, 4-Chloro-5-methyl-3-phenyl-1H-pyrazole]
inhibition at 500 µM (mushroom tyrosinase): 68.7 ± 0.4% | IC50 (mushroom tyrosinase): 197 µM | IC50 (A375; Homo sapiens, A-375, 48 h): 58.4 ± 4.5 µM | IC50 (SK-MEL-28; Homo sapiens, SK-MEL-28, 48 h): 62.3 ± 2.7 µM | IC50 (GFP-A431; [3]): 70.8 ± 6.2 µM | IC50 (SCC-12; Homo sapiens, SCC12, 48 h): 216 ± 13.4 µM | IC50 (HaCaT; Homo sapiens, HaCaT): 76.1 µM | Percent Scavenging (DPPH) [1]: -0.84%

Cc1[nH]nc2c1CCc1ccccc1-2 [P5, 3-Methyl-4,5-dihydro-2H-benzo[g]indazole]
inhibition at 500 µM (mushroom tyrosinase): 40% | IC50 (mushroom tyrosinase): > 500 µM | IC50 (A375; Homo sapiens, A-375, 48 h): 65.3 ± 4.2 µM | IC50 (SK-MEL-28; Homo sapiens, SK-MEL-28, 48 h): 131 ± 2.4 µM | IC50 (GFP-A431; [3]): 42.1 ± 3.1 µM | selectivity index (SI) A431 (GFP-A431; [5]): 6.3 | IC50 (SCC-12; Homo sapiens, SCC12, 48 h): 77.6 ± 1.7 µM | selectivity index (SI) SCC-12 (SCC-12; [6]): 3.4 | IC50 (HaCaT; Homo sapiens, HaCaT): 265 ± 4.3 µM | DPPH antioxidant activity (in words) [1]: inactivity | Percent Scavenging (DPPH) [1]: -10.48%

Cc1[nH]nc2c1ccc1ccccc12 [P6, 3-Methyl-2H-benzo[g]indazole]
inhibition at 500 µM (mushroom tyrosinase): 81.7 ± 0.7% | IC50 (mushroom tyrosinase): > 500 µM | IC50 (A375; Homo sapiens, A-375, 48 h): 114 ± 3.3 µM | IC50 (SK-MEL-28; Homo sapiens, SK-MEL-28, 48 h): 47.4 ± 1.2 µM | IC50 (GFP-A431; [3]): 69.8 ± 7.5 µM | selectivity index (SI) A431 (GFP-A431; [5]): 2.1 | IC50 (SCC-12; Homo sapiens, SCC12, 48 h): 49.9 ± 3.4 µM | selectivity index (SI) SCC-12 (SCC-12; [6]): 3.0 | IC50 (HaCaT; Homo sapiens, HaCaT): 147.2 ± 0.8 µM | Percent Scavenging (DPPH) [1]: 65.17% | IC50 [1, 4]: 30.6 µM | IC50 [1, 2]: 30.6 ± 2.1 µM

CCc1c(C)nn(-c2ccccc2)c1C [P7, 4-Ethyl-3,5-dimethyl-1-phenyl-1H-pyrazole]
inhibition at 500 µM (mushroom tyrosinase): 55.5% | IC50 (mushroom tyrosinase): > 500 µM | IC50 (A375; Homo sapiens, A-375, 48 h): 53.3 ± 4.2 µM | IC50 (SK-MEL-28; Homo sapiens, SK-MEL-28, 48 h): 46 ± 1 µM | IC50 (GFP-A431; [3]): 47.8 ± 2 µM | IC50 (SCC-12; Homo sapiens, SCC12, 48 h): 43 ± 2.1 µM | IC50 (HaCaT; Homo sapiens, HaCaT): 59.2 ± 3.5 µM | Percent Scavenging (DPPH) [1]: 15.47% | IC50 [1, 4]: > 1000 µM

Cc1nn(-c2ccccc2)c2c1CCC2 [P8, 3-Methyl-1-phenyl-1,4,5,6-tetrahydrocyclopenta[c]pyrazole]
inhibition at 500 µM (mushroom tyrosinase): 67.2 ± 0.2% | IC50 (mushroom tyrosinase): 190 µM | IC50 (A375; Homo sapiens, A-375, 48 h): 55.3 ± 3.8 µM | IC50 (SK-MEL-28; Homo sapiens, SK-MEL-28, 48 h): 181 ± 4.7 µM | IC50 (GFP-A431; [3]): 72.2 ± 5.2 µM | IC50 (SCC-12; Homo sapiens, SCC12, 48 h): 120 ± 8.5 µM | IC50 (HaCaT; Homo sapiens, HaCaT): 44.5 ± 1.4 µM | Percent Scavenging (DPPH) [1]: -2.57%

Cc1cc(-c2ccccc2)n(-c2ccc(S(N)(=O)=O)cc2)n1 [P19, 4-(3-Methyl-5-phenyl-1H-pyrazol-1-yl)benzenesulfonamide]
inhibition at 500 µM (mushroom tyrosinase): 21.2% | IC50 (mushroom tyrosinase): > 500 µM | IC50 (A375; Homo sapiens, A-375, 48 h): 47.1 ± 4.2 µM | IC50 (SK-MEL-28; Homo sapiens, SK-MEL-28, 48 h): 40.5 ± 3 µM | IC50 (HaCaT; Homo sapiens, HaCaT): 57 ± 1.3 µM | Percent Scavenging (DPPH) [1]: -18.51%

OC[C@H]1O[C@@H](Oc2ccc(O)cc2)[C@H](O)[C@@H](O)[C@@H]1O [arbutin, 4-hydroxyphenyl β-D-glucopyranoside, reference compound]
inhibition at 500 µM (mushroom tyrosinase): 59 ± 0.4%

O=C1O[C@H]([C@@H](O)CO)C(O)=C1O [ascorbic acid, reference compound]
IC50 [1, 2]: 25.2 ± 1.4 µM

O=c1c(O)c(-c2ccc(O)c(O)c2)oc2cc(O)cc(O)c12 [quercetin, reference compound]
Percent Scavenging (DPPH) [1]: 60% | Percent Scavenging (DPPH) ([1]; listed as Quercetin): 60.83%
